# Experimental data published in publication PMC12281424, “A Rac-specific competitive inhibitor of guanine nucleotide binding reduces metastasis in triple-negative breast cancer” (Cell Reports Medicine, 2025).
# Several values for one entry are separate records, joined by “and”; a condition that tells them apart may be missing. Identical values can stand only once.
# Columns and labels:
# [1] = biological target: CDK6/cyclinD3(h) (Homo sapiens, UniProt Q00534); assay: Kinase Profiler; format: biochemical
# Description: (§1) Blood cell counts, kinase profiler, safety screen, bacterial cytotoxicity, Ames, micronucleus assays were performed by the company Eurofins (France). The kinase profiler was performed by the company Eurofins (Discovery, Panlab and Cerep).
# [2] = biological target: EphB2(h) (Homo sapiens, UniProt P29323); assay: Kinase Profiler; format: biochemical
# Description: as §1
# [3] = biological target: JAK1(h) (Homo sapiens, UniProt P23458); assay: Kinase Profiler; format: biochemical
# Description: (§2) The kinase profiler was performed by the company Eurofins (Discovery, Panlab and Cerep).
# [4] = biological target: Pim-3(h) (Homo sapiens, UniProt Q86V86); assay: Kinase Profiler; format: biochemical
# Description: as §1
# [5] = biological target: MRCKγ(h) (Homo sapiens, UniProt Q6DT37); assay: Kinase Profiler; format: biochemical
# Description: as §2
# [6] = biological target: cSRC(h) (Homo sapiens, UniProt P12931); assay: Kinase Profiler; format: biochemical
# Description: as §2
# [7] = biological target: SLK(h) (Homo sapiens, UniProt Q9H2G2); assay: Kinase Profiler; format: biochemical
# Chain of SLK(h) (Q9H2G2 whole entry): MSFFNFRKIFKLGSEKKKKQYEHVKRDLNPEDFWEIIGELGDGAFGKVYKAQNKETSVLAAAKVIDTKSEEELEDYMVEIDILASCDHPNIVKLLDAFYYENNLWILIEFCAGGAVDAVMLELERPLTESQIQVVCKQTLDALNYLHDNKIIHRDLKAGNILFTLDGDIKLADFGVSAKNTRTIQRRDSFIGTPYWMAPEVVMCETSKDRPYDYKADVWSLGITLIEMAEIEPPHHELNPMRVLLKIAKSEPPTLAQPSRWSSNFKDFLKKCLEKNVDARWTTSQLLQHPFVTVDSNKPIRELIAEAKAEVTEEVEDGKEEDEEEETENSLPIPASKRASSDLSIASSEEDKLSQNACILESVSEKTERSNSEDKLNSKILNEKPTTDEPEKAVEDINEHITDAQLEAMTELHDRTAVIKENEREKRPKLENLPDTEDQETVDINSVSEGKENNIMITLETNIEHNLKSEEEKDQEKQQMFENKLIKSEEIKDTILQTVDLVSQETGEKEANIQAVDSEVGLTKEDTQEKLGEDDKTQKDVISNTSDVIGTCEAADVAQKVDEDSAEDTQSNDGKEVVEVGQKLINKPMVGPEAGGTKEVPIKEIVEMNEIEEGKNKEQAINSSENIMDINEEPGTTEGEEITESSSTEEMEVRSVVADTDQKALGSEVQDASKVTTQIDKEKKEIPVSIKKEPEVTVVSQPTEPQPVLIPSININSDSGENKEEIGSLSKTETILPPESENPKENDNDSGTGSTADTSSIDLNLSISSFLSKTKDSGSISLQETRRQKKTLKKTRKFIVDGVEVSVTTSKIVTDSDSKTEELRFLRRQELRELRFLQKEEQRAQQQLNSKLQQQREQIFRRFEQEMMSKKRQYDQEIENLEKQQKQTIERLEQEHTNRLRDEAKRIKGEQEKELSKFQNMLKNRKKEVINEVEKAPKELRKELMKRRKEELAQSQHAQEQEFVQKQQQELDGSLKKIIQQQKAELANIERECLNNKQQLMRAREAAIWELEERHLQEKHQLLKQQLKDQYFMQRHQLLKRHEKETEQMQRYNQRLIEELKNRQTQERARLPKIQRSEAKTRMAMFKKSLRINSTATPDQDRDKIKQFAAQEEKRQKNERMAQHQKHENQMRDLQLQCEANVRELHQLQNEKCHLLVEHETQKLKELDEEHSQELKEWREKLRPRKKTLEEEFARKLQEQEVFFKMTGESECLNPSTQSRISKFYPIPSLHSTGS
# Description: as §2
# [8] = biological target: Ret (V804L)(h) (Homo sapiens, UniProt P07949, V804L); assay: Kinase Profiler; format: biochemical
# Description: as §2
# [9] = biological target: Melanocortin MC4 (Homo sapiens, UniProt P32245); assay: Safety screen; format: binding
# Chain of Melanocortin MC4 (P32245 whole entry): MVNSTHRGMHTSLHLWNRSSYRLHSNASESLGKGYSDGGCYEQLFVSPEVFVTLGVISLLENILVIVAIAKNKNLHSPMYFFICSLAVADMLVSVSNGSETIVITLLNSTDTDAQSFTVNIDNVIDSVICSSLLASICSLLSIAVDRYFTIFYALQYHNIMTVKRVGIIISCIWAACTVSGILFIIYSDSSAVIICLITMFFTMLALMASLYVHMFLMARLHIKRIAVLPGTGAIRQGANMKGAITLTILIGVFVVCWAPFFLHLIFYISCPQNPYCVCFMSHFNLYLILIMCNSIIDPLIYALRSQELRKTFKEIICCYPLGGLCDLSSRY
# Description: (§3) Blood cell counts, kinase profiler, safety screen, bacterial cytotoxicity, Ames, micronucleus assays were performed by the company Eurofins (France).
# [10] = biological target: TSSK1(h) (Homo sapiens, UniProt Q9BXA7); assay: Kinase Profiler; format: biochemical
# Description: as §2
# [11] = biological target: TYK2(h) (Homo sapiens, UniProt P29597); assay: Kinase Profiler; format: biochemical
# Description: as §1
# [12] = biological target: EphB4(h) (Homo sapiens, UniProt P54760); assay: Kinase Profiler; format: biochemical
# Description: as §1
# [13] = biological target: TTBK1(h) (Homo sapiens, UniProt Q5TCY1); assay: Kinase Profiler; format: biochemical
# Chain of TTBK1(h) (Q5TCY1 whole entry): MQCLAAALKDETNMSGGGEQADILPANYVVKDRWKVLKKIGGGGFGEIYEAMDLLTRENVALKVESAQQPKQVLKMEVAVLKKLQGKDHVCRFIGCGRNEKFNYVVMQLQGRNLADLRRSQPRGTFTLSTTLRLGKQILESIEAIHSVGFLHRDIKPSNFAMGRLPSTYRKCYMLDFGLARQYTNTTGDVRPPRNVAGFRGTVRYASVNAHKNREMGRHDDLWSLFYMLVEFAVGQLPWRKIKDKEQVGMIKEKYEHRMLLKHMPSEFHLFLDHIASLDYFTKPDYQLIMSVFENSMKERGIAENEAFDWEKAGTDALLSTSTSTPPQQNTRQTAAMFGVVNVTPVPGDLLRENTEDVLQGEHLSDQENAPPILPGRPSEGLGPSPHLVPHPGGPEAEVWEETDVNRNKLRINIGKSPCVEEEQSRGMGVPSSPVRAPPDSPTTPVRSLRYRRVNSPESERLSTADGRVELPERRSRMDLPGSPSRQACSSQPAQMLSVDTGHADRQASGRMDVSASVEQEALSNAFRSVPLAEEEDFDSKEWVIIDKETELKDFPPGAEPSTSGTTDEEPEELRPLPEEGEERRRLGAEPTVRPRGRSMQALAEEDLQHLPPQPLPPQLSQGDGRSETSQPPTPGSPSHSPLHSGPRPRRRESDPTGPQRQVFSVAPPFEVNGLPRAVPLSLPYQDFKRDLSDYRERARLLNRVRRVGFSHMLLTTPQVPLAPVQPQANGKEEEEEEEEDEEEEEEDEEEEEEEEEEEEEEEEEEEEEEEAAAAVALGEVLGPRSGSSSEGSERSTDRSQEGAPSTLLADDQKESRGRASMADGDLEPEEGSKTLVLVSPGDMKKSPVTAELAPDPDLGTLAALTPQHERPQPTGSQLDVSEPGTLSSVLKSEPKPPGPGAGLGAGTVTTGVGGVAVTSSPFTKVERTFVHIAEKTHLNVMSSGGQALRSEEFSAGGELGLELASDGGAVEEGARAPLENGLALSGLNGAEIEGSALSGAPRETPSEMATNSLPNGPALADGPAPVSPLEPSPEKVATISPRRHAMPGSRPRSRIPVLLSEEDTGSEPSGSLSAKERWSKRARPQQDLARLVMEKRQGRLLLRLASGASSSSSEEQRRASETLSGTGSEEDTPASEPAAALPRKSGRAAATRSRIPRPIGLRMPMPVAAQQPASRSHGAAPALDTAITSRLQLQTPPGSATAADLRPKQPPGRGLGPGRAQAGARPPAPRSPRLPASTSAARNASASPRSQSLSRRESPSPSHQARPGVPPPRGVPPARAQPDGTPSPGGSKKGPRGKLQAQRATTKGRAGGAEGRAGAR
# Description: as §2
# [14] = biological target: MRCKβ(h) (Homo sapiens, UniProt Q9Y5S2); assay: Kinase Profiler; format: biochemical
# Description: as §2
# [15] = system: TA98; assay: Bacterial cytotoxicity; format: cell-based
# Description: Data S2. Bacterial cytotoxicity of A41.
# Test Concentration %Effect Cytotoxicity (% of control)
# [16] = biological target: LATS2(h) (Homo sapiens, UniProt Q9NRM7); assay: Kinase Profiler; format: biochemical
# Description: as §2
# [17] = biological target: PRK1(h) (Homo sapiens, UniProt Q16512); assay: Kinase Profiler; format: biochemical
# Description: as §1
# [18] = biological target: PKCδ(h) (Homo sapiens, UniProt Q05655); assay: Kinase Profiler; format: biochemical
# Description: as §2
# [19] = biological target: ULK2(h) (Homo sapiens, UniProt Q8IYT8); assay: Kinase Profiler; format: biochemical
# Chain of ULK2(h) (Q8IYT8 whole entry): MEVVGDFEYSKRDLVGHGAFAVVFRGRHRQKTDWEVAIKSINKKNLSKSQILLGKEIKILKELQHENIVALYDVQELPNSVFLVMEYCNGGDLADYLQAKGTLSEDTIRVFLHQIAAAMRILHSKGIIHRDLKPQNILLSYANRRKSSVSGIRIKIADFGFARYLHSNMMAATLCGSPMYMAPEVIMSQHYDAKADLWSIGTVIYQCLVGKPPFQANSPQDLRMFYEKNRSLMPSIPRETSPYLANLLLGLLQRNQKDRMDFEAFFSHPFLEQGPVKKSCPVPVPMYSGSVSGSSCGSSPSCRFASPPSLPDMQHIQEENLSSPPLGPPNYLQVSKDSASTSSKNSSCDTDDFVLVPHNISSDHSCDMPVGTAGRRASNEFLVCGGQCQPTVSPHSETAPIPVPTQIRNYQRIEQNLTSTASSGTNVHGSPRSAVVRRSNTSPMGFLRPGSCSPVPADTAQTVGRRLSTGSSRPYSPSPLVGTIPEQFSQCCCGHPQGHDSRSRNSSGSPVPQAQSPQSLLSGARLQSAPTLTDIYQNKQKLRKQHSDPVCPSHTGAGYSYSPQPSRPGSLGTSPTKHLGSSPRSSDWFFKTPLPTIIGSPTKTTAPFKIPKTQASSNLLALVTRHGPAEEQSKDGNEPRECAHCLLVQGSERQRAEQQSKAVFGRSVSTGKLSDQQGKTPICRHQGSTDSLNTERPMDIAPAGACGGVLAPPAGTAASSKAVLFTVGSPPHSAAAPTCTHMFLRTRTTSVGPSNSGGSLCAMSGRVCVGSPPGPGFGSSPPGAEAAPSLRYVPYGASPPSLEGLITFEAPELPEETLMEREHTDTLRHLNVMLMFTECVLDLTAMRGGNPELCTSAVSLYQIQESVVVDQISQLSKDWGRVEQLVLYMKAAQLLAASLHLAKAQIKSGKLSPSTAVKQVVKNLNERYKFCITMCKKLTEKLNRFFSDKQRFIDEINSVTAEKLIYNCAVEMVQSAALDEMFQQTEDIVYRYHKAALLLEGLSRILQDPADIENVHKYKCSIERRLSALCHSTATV
# Description: as §1
# [20] = biological target: BIKe(h) (Homo sapiens, UniProt Q9NSY1); assay: Kinase Profiler; format: biochemical
# Description: as §1
# [21] = biological target: Cannabinoid CB1 (Homo sapiens, UniProt P21554); assay: Safety screen; format: binding
# [22] = biological target: STK32A(h) (Homo sapiens, UniProt Q8WU08); assay: Kinase Profiler; format: biochemical
# Chain of STK32A(h) (Q8WU08 whole entry): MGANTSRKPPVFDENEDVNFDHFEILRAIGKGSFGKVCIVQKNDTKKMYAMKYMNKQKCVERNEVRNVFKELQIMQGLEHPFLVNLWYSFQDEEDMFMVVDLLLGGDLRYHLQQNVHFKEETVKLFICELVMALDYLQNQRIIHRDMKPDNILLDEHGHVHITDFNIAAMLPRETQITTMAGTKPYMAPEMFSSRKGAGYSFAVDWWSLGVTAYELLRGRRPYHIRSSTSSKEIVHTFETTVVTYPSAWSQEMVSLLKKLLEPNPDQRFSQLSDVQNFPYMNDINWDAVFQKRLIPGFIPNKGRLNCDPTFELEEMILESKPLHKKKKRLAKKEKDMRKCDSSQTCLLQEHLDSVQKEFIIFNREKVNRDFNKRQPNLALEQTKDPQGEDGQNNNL
# Description: as §2
# [23] = biological target: PPARγ (Homo sapiens, UniProt P37231); assay: Safety screen; format: binding
# Description: as §1
# [24] = biological target: LIMK2(h) (Homo sapiens, UniProt P53671); assay: Kinase Profiler; format: biochemical
# Chain of LIMK2(h) (P53671 whole entry): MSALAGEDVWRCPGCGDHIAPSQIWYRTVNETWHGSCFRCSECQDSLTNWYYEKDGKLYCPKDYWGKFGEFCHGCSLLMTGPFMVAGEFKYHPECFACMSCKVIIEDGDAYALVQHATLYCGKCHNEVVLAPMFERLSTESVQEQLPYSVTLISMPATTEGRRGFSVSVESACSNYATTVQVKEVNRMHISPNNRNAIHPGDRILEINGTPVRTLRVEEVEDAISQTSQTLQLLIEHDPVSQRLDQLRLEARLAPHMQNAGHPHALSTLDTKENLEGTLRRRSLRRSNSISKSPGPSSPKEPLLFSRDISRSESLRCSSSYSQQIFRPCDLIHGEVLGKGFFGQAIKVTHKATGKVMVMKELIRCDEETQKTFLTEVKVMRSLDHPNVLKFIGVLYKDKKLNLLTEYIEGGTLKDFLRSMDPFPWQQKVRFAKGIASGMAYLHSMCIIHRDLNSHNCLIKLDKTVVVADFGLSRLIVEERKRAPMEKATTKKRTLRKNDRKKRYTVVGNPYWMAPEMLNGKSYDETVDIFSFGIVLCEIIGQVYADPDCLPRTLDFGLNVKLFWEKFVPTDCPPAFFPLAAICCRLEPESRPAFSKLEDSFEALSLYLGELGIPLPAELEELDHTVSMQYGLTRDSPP
# Description: as §2
# [25] = biological target: Serotonin (5-Hydroxytryptamine) 5-HT2C (Homo sapiens, UniProt P28335); assay: Safety screen; format: binding
# Description: as §3
structure (smiles),measurement,setting,value
COc1ccc(OC)c(NS(=O)(=O)c2ccc(NC(=O)CCSc3ccc(C)cc3)cc2)c1 [Compound A41],Activity(%),[1],111%
same,Activity(%),[2],97%
same,Activity(%),[3],99%
same,Activity(%),[4],101%
same,Activity(%),[5],97%
same,Activity(%),[6],111%
same,Activity(%),[7],127%
same,Activity(%),[8],93%
same,% inh.,[9],8%
same,Activity(%),[10],103%
same,Activity(%),[11],108%
same,Activity(%),[12],112%
same,Activity(%),[13],103%
same,Activity(%),[14],102%
same,"%Effect, single replicates (1st, 2nd, 3rd)","[15]; - S9, 1.0E-04 M",154.6% and 177.5% and 143.7%
same,"Cytotoxicity (% of control), Mean %Effect","[15]; - S9, 1.0E-04 M",158.6%
same,"%Effect, single replicates (1st, 2nd, 3rd)","[15]; - S9, 1.0E-05 M",82.4% and 76.9% and 77.8%
same,"Cytotoxicity (% of control), Mean %Effect","[15]; - S9, 1.0E-05 M",79.0%
same,"%Effect, single replicates (1st, 2nd, 3rd)","[15]; - S9, 1.2E-06 M",89.7% and 74.1% and 55.8%
same,"Cytotoxicity (% of control), Mean %Effect","[15]; - S9, 1.2E-06 M",73.2%
same,"%Effect, single replicates (1st, 2nd, 3rd)","[15]; - S9, 2.5E-05 M",95.2% and 92.4% and 83.3%
same,"Cytotoxicity (% of control), Mean %Effect","[15]; - S9, 2.5E-05 M",90.3%
same,"%Effect, single replicates (1st, 2nd, 3rd)","[15]; - S9, 2.5E-06 M",80.5% and 83.3% and 82.4%
same,"Cytotoxicity (% of control), Mean %Effect","[15]; - S9, 2.5E-06 M",82.0%
same,"%Effect, single replicates (1st, 2nd, 3rd)","[15]; - S9, 5.0E-05 M",88.8% and 83.3% and 75.9%
same,"Cytotoxicity (% of control), Mean %Effect","[15]; - S9, 5.0E-05 M",82.7%
same,"%Effect, single replicates (1st, 2nd, 3rd)","[15]; - S9, 5.0E-06 M",88.8% and 84.2% and 81.4%
same,"Cytotoxicity (% of control), Mean %Effect","[15]; - S9, 5.0E-06 M",84.8%
same,"%Effect, single replicates (1st, 2nd, 3rd)","[15]; - S9, 6.0E-07 M",92.4% and 82.4% (2×)
same,"Cytotoxicity (% of control), Mean %Effect","[15]; - S9, 6.0E-07 M",85.7%
same,Activity(%),[16],110%
same,Activity(%),[17],93%
same,Activity(%),[18],110%
same,Activity(%),[19],99%
same,Activity(%),[20],112%
same,% inh.,[21],81%
same,Activity(%),[22],100%
same,% inh.,[23],-7%
same,Activity(%),[24],115%
same,% inh.,[25],56%
